Values of other authors in patent publication US20220184007A1, “FORMULATIONS” (Synchroneuron Inc., priority 2019, published 2022).

Columns and labels:
[1] = tested on: psychogenic nonepileptic seizures; conditions: flexible-dose, 12 weeks, 33 subjects, statistically underpowered
[2] = tested on: psychogenic nonepileptic seizures; conditions: flexible-dose, open-label, uncontrolled study

Structure (SMILES)	biweekly event frequency change [1]	event reduction [2]
CN[C@H]1CC[C@@H](c2ccc(Cl)c(Cl)c2)c2ccccc21 [sertraline]	no difference between groups	
COc1ccc(C(CN(C)C)C2(O)CCCCC2)cc1 (centres unmarked) [venlafaxine]		significant event reduction
